What all share (format): biochemical
One assay concerns the target T1, full-length human PHD2 (Homo sapiens, UniProt Q9GZT9).
T1 construct: The PHD2 construct contained amino acids 1 to 426 of PHD2; His tag (N, cleaved yes); TEV protease cleavage site (N, cleaved yes); host or cells: Sf9 insect cells (baculovirus)
The assay is described as follows: TR-FRET assay, PHD2 enzymatic IC50. Conditions: 5 nM PHD2, 1 μM 2-OG. The text has this: (§1) In the presence of 2-oxoglutarate and O2, PHD enzyme hydroxylates proline 564 of biotin-tagged HIF-1α peptide resulting in generation of biotin-tagged HIF-1α-hydroxyproline, succinate and CO2. The resulting proximity of the donor fluorophore complex, monoclonal antibody anti-6His-Terbium (Tb)-cryptate Gold, bound to the His-tagged VHL protein, EloB, EloC complex (His-VBC) and the acceptor fluorophore, SA-D2 complex, bound to HIF-1α-hydroxyproline results in a fluorescence resonance energy transfer signal that can be detected and quantified
(§2) Time-resolved fluorescence resonance energy transfer (TR-FRET) assay was utilized to determine the enzymatic half maximal inhibitory concentration (IC50) value of PHD inhibitors against the full-length human prolyl-4-hydroxylase domain (PHD) enzymes, PHD1, PHD2, and PHD3. The TR-FRET assay was developed based on the specific binding of hydroxylated HIF-1α peptide with the complex formed by VHL, EloB and EloC (VBC), to generate a fluorescent signal. Terbium (Tb)-Donor (monoclonal antibody anti-6His-Tb-cryptate Gold) and D2-acceptor (streptavidin [SA]-D2) of TR-FRET are linked to the VBC complex and to HIF-1α peptide, respectively. The VBC complex binds specifically to the HIF-1α peptide when it is hydroxylated, allowing energy transfer from TR-FRET donor to acceptor (FIG. 1).
The full-length human PHD2 enzyme was produced with a baculovirus infected insect cell (BIIC) expression system by Beryllium (Bedford, Mass., USA). The PHD2 construct contained amino acids 1 to 426 of PHD2 (UniProt Knowledgebase[UniProtKB]/Swiss-Prot accession number Q9GZT9.1), and a His tag and a Tobacco Etch Virus (TEV) protease cleavage site at the N-terminus. The construct was expressed in Sf9 insect cells, purified by Ni-NTA column and digested with TEV protease to remove the His tag.
(§3) PHD inhibitor compound was preincubated with PHD enzyme in a 10 μL reaction volume in white 384-well Optiplate microplates (catalog #6007290, Perkin Elmer, Waltham, Mass., USA). For this, 5 μL PHD inhibitor compound was serially diluted with dilution buffer (50 mM HEPES [4-(2-hydroxyethyl)-1-piperazineethanesulfonic acid] pH 7.5, 50 mM sodium chloride [NaCl], 0.01% Tween-20, 0.01% purified bovine serum albumin [BSA]) and mixed with 5 μL PHD enzyme mix prepared as a 4× concentrate in the dilution buffer containing PHD enzyme (60 nM PHD1, 20 nM PHD2, 140 nM PHD3), 40 μM ferrous ammonium sulfate (FAS), 4 mM sodium (Na) ascorbate. The plates were incubated for 30 minutes at room temperature without rotation.
(§4) Five microliters of the VBC/anti-6His-Tb-cryptate Gold mix prepared as a 4×concentrate in dilution buffer containing 20 nM His-VBC, 1.32 nM monoclonal antibody anti-6His-Tb-cryptate Gold was then added. This step was followed immediately by the addition of 5 μL of the HIF-1α C35 substrate mix prepared as a 4×concentrate in the dilution buffer containing 120 nM biotin-labeled HIF-1α C35, 132 nM SA-D2, 4 μM 2-oxoglutarate (2-OG) to reach a final reaction volume of 20 μL.
(§5) The final assay reaction contained 50 mM HEPES, pH 7.5, 50 mM NaCl, 1 μM 2-OG, 10 μM FAS, 1 mM Na ascorbate, 0.01% Tween-20, 0.01% purified BSA, 30 nM biotin-labeled HIF-1α C35, 5 nM His-VBC, 0.33 nM monoclonal antibody anti-6His-Tb-cryptate Gold, 33 nM SA-D2 and PHD enzyme (15 nM PHD1, 5 nM PHD2, or 35 nM PHD3) with the diluted compound.
(§6) For the measurement of the IC50 of PHD inhibitor compound, reactions were incubated for 10 minutes at room temperature and then read on a Perkin Elmer EnVision (Waltham, Mass., USA) at an excitation wavelength of 340 nm and at emission wavelengths of 615 nm and 665 nm. The data represent the quotient of the signal intensity at 665 nm and 615 nm, automatically calculated by Envision Manager software (Perkin Elmer, Waltham, Mass., USA). […]
(In TR-FRET formats the signal depends on donor and acceptor labels being close together.)

A further assay concerns the target T2, full-length human PHD1 (Homo sapiens, UniProt Q96KS0).
T2 construct: expressed in a baculovirus expression system as the full-length protein; FLAG (N); purchased Active Motif 81064; host or cells: baculovirus expression system
The assay is described as follows: TR-FRET assay, PHD1 enzymatic IC50. Conditions: 15 nM PHD1, 1 μM 2-OG.
From the text: as §1, §2
Recombinant human PHD1 protein (catalog #81064, Lot #24717001) was purchased from Active Motif (Carlsbad, Calif., USA). PHD1 was expressed in a baculovirus expression system as the full-length protein (NCBI accession number NP_542770.2) with an N-terminal FLAG tag (molecular weight 44.9 kDa). Purity (>90%) was assessed by SDS-PAGE.
as §3, §4, §5
as §6, with “USA). The IC50 values (mean, standard deviation, standard error of the mean, geometric mean and 95% confidence interval) were determined using a four-parameter curve-fit using GraphPad Prism 7.0 (GraphPad, La Jolla, Calif., USA) and represent the compound concentration plotted against the calculated ratio of 665 nm and 615 nm.” for “USA).”

For the next assay, the target named is T3, full-length human PHD3 (Homo sapiens, UniProt Q9H6Z9).
T3 construct: It was expressed in E. coli as the full-length protein; 6-His (N); purchased Active Motif 81033; host or cells: E. coli
T3 sequence (Q9H6Z9 whole entry): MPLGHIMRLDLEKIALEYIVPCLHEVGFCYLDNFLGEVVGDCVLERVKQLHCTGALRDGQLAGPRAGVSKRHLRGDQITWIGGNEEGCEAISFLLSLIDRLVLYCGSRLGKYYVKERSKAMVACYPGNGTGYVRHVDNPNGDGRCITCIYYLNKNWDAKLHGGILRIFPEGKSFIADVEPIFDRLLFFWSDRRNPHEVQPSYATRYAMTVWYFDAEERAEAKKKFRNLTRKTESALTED
The assay is described as follows: TR-FRET assay, PHD3 enzymatic IC50. The note with it: 35 nM PHD3, 1 μM 2-OG.
From the text: as §1, §2
Recombinant human PHD3 protein (molecular weight 31.1 kDa) was purchased from Active Motif (Carlsbad, Calif., USA). It was expressed in E. coli as the full-length protein (NCBI accession number NP_071356.1) with an N-terminal 6-His tag (catalog #81033, Lot #24417001).
as §3, §4, §5
as §6, with “USA). The IC50 values (mean, standard deviation, standard error of the mean, geometric mean and 95% confidence interval) were determined using a four-parameter curve-fit using GraphPad Prism 7.0 (GraphPad, La Jolla, Calif., USA) and represent the compound concentration plotted against the calculated ratio of 665 nm and 615 nm.” for “USA).”

SMILES strings stand for the structures.

T1 sequence (Q9GZT9 whole entry, the tested form may be a part): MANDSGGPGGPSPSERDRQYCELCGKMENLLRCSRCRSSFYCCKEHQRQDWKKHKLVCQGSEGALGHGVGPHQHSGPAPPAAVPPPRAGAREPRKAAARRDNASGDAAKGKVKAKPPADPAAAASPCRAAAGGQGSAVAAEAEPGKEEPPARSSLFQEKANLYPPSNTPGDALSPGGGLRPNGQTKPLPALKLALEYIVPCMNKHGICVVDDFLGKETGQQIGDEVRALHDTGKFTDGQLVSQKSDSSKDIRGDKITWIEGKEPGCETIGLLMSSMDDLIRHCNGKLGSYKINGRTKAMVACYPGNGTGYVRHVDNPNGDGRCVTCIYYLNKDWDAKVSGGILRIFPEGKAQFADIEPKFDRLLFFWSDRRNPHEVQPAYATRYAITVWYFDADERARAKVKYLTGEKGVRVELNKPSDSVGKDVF
T2 sequence (Q96KS0 whole entry): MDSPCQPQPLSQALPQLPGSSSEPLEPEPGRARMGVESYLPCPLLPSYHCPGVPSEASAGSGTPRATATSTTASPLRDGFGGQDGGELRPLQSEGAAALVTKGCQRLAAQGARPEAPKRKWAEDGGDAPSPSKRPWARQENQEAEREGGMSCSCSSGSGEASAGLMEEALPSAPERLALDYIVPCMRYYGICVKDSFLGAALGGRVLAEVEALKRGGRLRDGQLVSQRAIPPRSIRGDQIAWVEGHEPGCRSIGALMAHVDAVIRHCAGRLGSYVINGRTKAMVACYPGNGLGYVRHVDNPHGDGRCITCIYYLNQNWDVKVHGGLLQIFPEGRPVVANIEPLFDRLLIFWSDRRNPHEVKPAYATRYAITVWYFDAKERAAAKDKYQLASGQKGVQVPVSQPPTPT

On to `N#Cc1ccc(-c2cnn(-c3ccc(C4CC4)cn3)c2O)cc1` [Compound 16, 4-(1-(5-cyclopropylpyridin-2-yl)-5-hydroxy-1H-pyrazol-4-yl)benzonitrile], for which the IC50 on full-length human PHD2 is at least 10 µM; against full-length human PHD1 it was 0.1 to 1 µM.

As for `CS(=O)(=O)c1ccc(-n2ncc(-c3ccc(Br)cc3)c2O)nc1` [Compound 9, 4-(4-bromophenyl)-1-(5-(methylsulfonyl)pyridin-2-yl)-1H-pyrazol-5-ol], the half-maximal inhibitory concentration (IC50) at full-length human PHD2 is below 0.1 µM; against full-length human PHD1, below 0.1 µM; against full-length human PHD3, 0.1 to 1 µM.

As for `CS(=O)(=O)c1ccc(-n2ncc(-c3ccc(F)cc3)c2O)nc1` [Compound 20, 4-(4-fluorophenyl)-1-(5-(methylsulfonyl)pyridin-2-yl)-1H-pyrazol-5-ol], the IC50 is below 0.1 µM against full-length human PHD2, below 0.1 µM against full-length human PHD1 and at least 10 µM against full-length human PHD3.

For the compound `COc1cc(-c2cnn(-c3ccc(S(C)(=O)=O)cn3)c2O)ccn1` [Compound 8, 4-(2-methoxypyridin-4-yl)-1-(5-(methylsulfonyl)pyridin-2-yl)-1H-pyrazol-5-ol], the 50% inhibitory concentration (IC50) is below 0.1 µM on full-length human PHD2, below 0.1 µM against full-length human PHD1 and 0.1 to 1 µM at full-length human PHD3.

For `CS(=O)(=O)c1ccc(-n2ncc(-c3ccc(Cl)cc3)c2O)nc1` [Compound 19, 4-(4-chlorophenyl)-1-(5-(methylsulfonyl)pyridin-2-yl)-1H-pyrazol-5-ol], the half-maximal inhibitory concentration (IC50) is below 0.1 µM against full-length human PHD2, below 0.1 µM on full-length human PHD1 and 0.1 to 1 µM at full-length human PHD3.

As to `CS(=O)(=O)c1ccc(-n2ncc(-c3cccc(C#N)c3)c2O)nc1` [Compound 5, 3-(5-hydroxy-1-(5-(methylsulfonyl)pyridin-2-yl)-1H-pyrazol-4-yl)benzonitrile], the IC50 is below 0.1 µM against full-length human PHD2 and 0.1 to 1 µM at full-length human PHD1.

Consider `Cc1cc(C#N)ccc1-c1cnn(-c2ccc(S(C)(=O)=O)cn2)c1O` [Compound 6, 4-(5-hydroxy-1-(5-(methylsulfonyl)pyridin-2-yl)-1H-pyrazol-4-yl)-3-methylbenzonitrile], for which the IC50 against full-length human PHD2, against full-length human PHD1 and on full-length human PHD3 was below 0.1 µM in each case.

Consider `N#Cc1ccc(-c2cnn(-c3ccc(Cl)cn3)c2O)cc1` [Compound 18, 4-(1-(5-chloropyridin-2-yl)-5-hydroxy-1H-pyrazol-4-yl)benzonitrile], for which the 50% inhibitory concentration (IC50) at full-length human PHD2 and on full-length human PHD1 was 0.1 to 1 µM in each case.

Turning to `CCS(=O)(=O)Nc1ccc(-n2ncc(-c3ccc(C#N)cc3)c2O)nc1` [Compound 25, N-(6-(4-(4-cyanophenyl)-5-hydroxy-1H-pyrazol-1-yl)pyridin-3-yl)ethanesulfonamide], the half-maximal inhibitory concentration (IC50) on full-length human PHD2, at full-length human PHD1 and against full-length human PHD3 was below 0.1 µM throughout.

In the case of `N#Cc1ccc(-c2cnn(-c3ccc(-c4ccccn4)cn3)c2O)cc1` [Compound 13, 4-(1-([2,3′-bipyridin]-6′-yl)-5-hydroxy-1H-pyrazol-4-yl)benzonitrile], the half-maximal inhibitory concentration (IC50) against full-length human PHD2 is 0.1 to 1 µM; on full-length human PHD1, below 0.1 µM.

Consider `CS(=N)(=O)c1ccc(-n2ncc(-c3ccc(C#N)cc3)c2O)nc1` (stereo not shown) [Compound 26, 4-(5-hydroxy-1-(5-(S-methylsulfonimidoyl)pyridin-2-yl)-1H-pyrazol-4-yl)benzonitrile], for which the IC50 against full-length human PHD2 and against full-length human PHD1 was below 0.1 µM throughout.

With `N#Cc1ccc(-c2cnn(-c3ccc(NC(=O)N4CCNCC4)cn3)c2O)cc1` [Compound 33, N-(6-(4-(4-cyanophenyl)-5-hydroxy-1H-pyrazol-1-yl)pyridin-3-yl)piperazine-1-carboxamide], the IC50 against full-length human PHD2 and on full-length human PHD1 was at least 10 µM throughout.

Consider `N#Cc1ccc(-c2cnn(-c3ccc(NC(=O)N4CCOCC4)cn3)c2O)cc1` [Compound 28, N-(6-(4-(4-cyanophenyl)-5-hydroxy-1H-pyrazol-1-yl)pyridin-3-yl)morpholine-4-carboxamide], for which the half-inhibitory concentration (IC50) on full-length human PHD2 and against full-length human PHD1 was at least 10 µM throughout.

Consider `CS(=O)(=O)c1ccc(-n2ncc(-c3ccc(Cl)cn3)c2O)nc1` [Compound 31, 4-(5-chloropyridin-2-yl)-1-(5-(methylsulfonyl)pyridin-2-yl)-1H-pyrazol-5-ol], for which the IC50 on full-length human PHD2 and against full-length human PHD1 was 0.1 to 1 µM each time.

As for `Cc1cc(C#N)ccc1-c1cnn(-c2ncc(S(C)(=O)=O)cc2Cl)c1O` [Compound 32, 4-(1-(3-chloro-5-(methylsulfonyl)pyridin-2-yl)-5-hydroxy-1H-pyrazol-4-yl)-3-methylbenzonitrile], the concentration for half-maximal inhibition (IC50) against full-length human PHD2 and against full-length human PHD1 was at least 10 µM in each case.

With `CC(=O)NS(=O)(=O)c1ccc(-n2ncc(-c3ccc(C#N)cc3)c2O)nc1` [Compound 29, N-((6-(4-(4-cyanophenyl)-5-hydroxy-1H-pyrazol-1-yl)pyridin-3-yl)sulfonyl)acetamide], the IC50 against full-length human PHD2 and against full-length human PHD1 was below 0.1 µM each time.

On to `N#Cc1ccc(-c2cnn(-c3ccc(C(F)(F)F)cn3)c2O)cc1` [Compound 14, 4-(5-hydroxy-1-(5-(trifluoromethyl)pyridin-2-yl)-1H-pyrazol-4-yl)benzonitrile], for which the IC50 on full-length human PHD2 was 1 to 10 µM; against full-length human PHD1, 0.1 to 1 µM.

`N#Cc1ccc(-c2cnn(-c3ccc(Br)cn3)c2O)cc1` [Compound 21, 4-(1-(5-bromopyridin-2-yl)-5-hydroxy-1H-pyrazol-4-yl)benzonitrile]: the IC50 at full-length human PHD2 and against full-length human PHD1 was 0.1 to 1 µM throughout.

As for `CP(C)(=O)c1ccc(-n2ncc(-c3ccc(C#N)cc3)c2O)nc1` [Compound 30, 4-(1-(5-(dimethylphosphoryl)pyridin-2-yl)-5-hydroxy-1H-pyrazol-4-yl)benzonitrile], the concentration for half-maximal inhibition (IC50) on full-length human PHD2 and at full-length human PHD1 was below 0.1 µM each time.

Take `CS(=O)(=O)NC(=O)c1ccc(-n2ncc(-c3ccc(C#N)cc3)c2O)nc1` [Compound 27, 6-(4-(4-cyanophenyl)-5-hydroxy-1H-pyrazol-1-yl)-N-(methylsulfonyl) nicotinamide]: the half-inhibitory concentration (IC50) against full-length human PHD2 and at full-length human PHD1 was below 0.1 µM each time.

For orientation: IC50 means the concentration needed to halve the response being measured. The low end stands for greater potency, the high end for weaker potency.

For the origin of these results see patent US20230212138A1, “PHD INHIBITOR COMPOUNDS, COMPOSITIONS, AND THEIR USE” (Akebia Therapeutics, Inc., priority 2020, published 2023).
